In patent US5342771A, “Functionalized imidazolinone haptens and protein conjugates thereof useful in assays for the detection of imidazolinone herbicides” (American Cyanamid Company, priority 1993, dated 1994):

Biological target: antibody
Assay: Cross-reactivity of the antibody by ELISA (competitive binding with enzyme conjugate)
Design: species or system New Zealand white rabbits
Settings: concentration giving 50% reduction of absorbance caused by enzyme conjugate binding to a known amount of antibody
Method: The antigen produced in example 2 is dissolved into 0.1M sodium phosphate buffer solution containing 0.14% sodium chloride at pH 7.6 (PBS 7.6). One milliliter of the antigen solution, 0.5 mg antigen per milliliter, is mixed with one milliliter of Freund's complete adjuvant and emulsified. The emulsion is injected peri-lymph nodal into New Zealand white rabbits at 0.5 mg/rabbit. Three weeks after the initial immunization, 0.25 mg of the antigen in 1 mL of PBS 7.6 is emulsified with 1 mL of Freund's incomplete adjuvant and injected into the rabbits intramuscularly as boosters. The booster injections are introduced every three weeks into the rabbits. After the second boost, blood samples are collected through the ear vein ten days post injection. Serum containing the antibody is harvested from the blood samples and stored.
The antibody and enzyme conjugate prepared above are used to establish an ELISA method for the determination of the presence and concentration of imidazolinones in soil, water or plant samples. A Costar 96 well polystyrene EIA treated flat bottom microwell plate is coated with a constant amount of the antibody in a 0.1N Na2 CO3 buffer. The antibody coated wells are incubated overnight at 4° C., washed with PBS 7.6 buffer containing 0.01% TWEEN® 20, blocked with 5% milk (nonfat dry milk) in PBS 7.6 and incubated 30 minutes at room temperature. Standard solutions having concentrations of imazaquin from 0 to 25 ng per mL are added to the blocked wells followed by the addition of the aforementioned enzyme conjugate.
The wells are incubated for thirty minutes, washed and then a freshly prepared tetramethylbenzidine/hydrogen peroxide substrate solution is added to each well. After ten minutes, readings are taken for each well at 650 nm using a microwell reader.
The cross reactivity of the antibody with imidazolinone compounds, imidazolinone metabolites and other commonly found agrochemicals is determined using the procedure of example 5. The concentration of a compound which produces a 50% reduction of absorbance caused by the enzyme conjugate binding to a known amount of antibody is defined as the I50 value (50% inhibition concentration). The I50 values from the cross-reactivity studies are in Table III.

Molecule: CC(C)C(C)(C(N)=O)N1C(=O)c2cc3ccccc3nc2C1=O (stereo not drawn) [1,3-Dihydro-α-isopropyl-α-methyl-1,3-dioxo-2 --H-pyrrolo[3,4- -b]quinoline-2-acetamide]
- I50 (50% inhibition concentration): > 5,000 ng/mL

Molecule: mixture of methyl 6-(4-isopropyl-4-methyl-5-oxo-2-imidazolin-2-yl)-m-toluate and methyl 2-(4-isopropyl-4-methyl-5-oxo-2-imidazolin-2-yl)-p-toluate [Imazamethabenz]
- I50 (50% inhibition concentration): 33.2 ng/mL

Molecule: CCNc1nc(Cl)nc(NC(C)C)n1 [Atrazine]
- I50 (50% inhibition concentration): > 100,000 ng/mL

Molecule: COC(=O)c1nc2ccccc2cc1C(=O)NC(C)(C(N)=O)C(C)C (centres unmarked) [Methyl 3-[(1-carbamoyl-1,2-dimethylpropyl)carbamoyl]-2-quinolinecarboxylate]
- I50 (50% inhibition concentration): > 5,000 ng/mL

Molecule: CC(C)C1(C)N=C(c2ncccc2C(=O)O)NC1=O (centres unmarked) [Imazapyr, 2-(4-isopropyl-4-methyl-5-oxo-2-imidazolin-2-yl)nicotinic acid]
- I50 (50% inhibition concentration): 149.0 ng/mL

Molecule: CC(C)C1(C)N=C(c2nc3ccccc3cc2C(=O)O)NC1=O (centres unmarked) [Imazaquin, 2-(4-isopropyl-4-methyl-5-oxo-2-imidazolin-2-yl)-3-quinolinecarboxylic acid]
- I50 (50% inhibition concentration): 10.7 ng/mL

Molecule: CCc1cnc(C2=NC(C)(C(C)C)C(=O)N2)c(C(=O)O)c1 (centres unmarked) [Imazethapyr, 5-ethyl-2-(4-isopropyl-4-methyl-5-oxo-2-imidazolin-2-yl)nicotinic acid]
- I50 (50% inhibition concentration): 18.5 ng/mL

Molecule: CC(C)C(C)(NC(=O)c1cc2ccccc2nc1C(=O)O)C(N)=O (centres unmarked) [3-[(1-Carbamoyl-1,2-dimethylpropyl)carbamoyl]quinaldic acid]
- I50 (50% inhibition concentration): > 5,000 ng/mL

Molecule: CCc1cccc(CC)c1N(COC)C(=O)CCl [Alachlor]
- I50 (50% inhibition concentration): > 100,000 ng/mL

Molecule: COc1nc(C)nc(NC(=O)NS(=O)(=O)c2ccccc2Cl)n1 [Chlorsulfuron]
- I50 (50% inhibition concentration): > 100,000 ng/mL

Molecule: CCC(CC)Nc1c([N+](=O)[O-])cc(C)c(C)c1[N+](=O)[O-] [Pendimethalin]
- I50 (50% inhibition concentration): > 100,000 ng/mL

Molecule: CC(C)C(C)(NC(=O)c1nc2ccccc2cc1C(=O)O)C(N)=O (centres unmarked) [2-[(1-Carbamoyl-1,2-dimethylpropyl)carbamoyl]-3-quinolinecarboxylic acid]
- I50 (50% inhibition concentration): > 5,000 ng/mL

Molecule: CCCCOCN(C(=O)CCl)c1c(CC)cccc1CC [Butachlor]
- I50 (50% inhibition concentration): > 100,000 ng/mL

Molecule: C[n+]1ccc(-c2cc[n+](C)cc2)cc1 [Paraquat]
- I50 (50% inhibition concentration): > 100,000 ng/mL
